Data on ten compounds can be found in ChEMBL document CHEMBL5550185, “Targeting hTERT Promoter G-Quadruplex DNA Structures with Small-Molecule Ligand to Downregulate hTERT Expression for Triple-Negative Breast Cancer Therapy” (J Med Chem, 2024).

The structures appear in SMILES notation. pIC50: −log10 of the molar value.

One series concerns HepG2. The series is described as follows: Cytotoxicity against telomerase-positive human HepG2 cells assessed as inhibition of cell growth incubated for 48 hrs by MTT assay. Format: functional, cell-based. The note with it: HepG2, 48 h.
The subject of a further series is U2OS. The series is described as follows: Cytotoxicity against alternative lengthening of telomere-positive human U2OS cells assessed as inhibition of cell growth incubated for 48 hrs by MTT assay. Format: functional, cell-based.
In a further series the test system is HeLa. Put plainly: Cytotoxicity against telomerase-positive human HeLa cells assessed as inhibition of cell growth incubated for 48 hrs by MTT assay. Format: functional, cell-based. On the technique in general: Tetrazolium assays rely on reduction of a dye to a coloured formazan, in cell work by metabolically active cells.
The nature of series [1]: Cytotoxicity against human HK-2 cells assessed as inhibition of cell growth incubated for 48 hrs by MTT assay. Format: toxicity, cell-based.
A short description of series [2]: Cytotoxicity against HUVEC cells assessed as inhibition of cell growth incubated for 48 hrs by MTT assay. Format: toxicity, cell-based. Particulars: human.
For the next series, the system named is MDA-MB-231. The series is described as follows: Cytotoxicity against telomerase-positive human MDA-MB-231 cells assessed as inhibition of cell growth incubated for 48 hrs by MTT assay. Format: functional, cell-based. Particulars: MDA-MB-231, 48 h.
A further series relates to A549. The series is described as follows: Cytotoxicity against telomerase-positive human A549 cells assessed as inhibition of cell growth incubated for 48 hrs by MTT assay. Format: functional, cell-based. Particulars: A549, 48 h.
A further series deals with PC-3. Put plainly: Cytotoxicity against telomerase-positive human PC-3 cells assessed as inhibition of cell growth incubated for 48 hrs by MTT assay. Particulars: PC-3, 48 h. Format: functional, cell-based.

As usually defined, the pIC50 is the IC50 on a negative log10 scale, so that one unit is a factor of ten. As usually defined, the IC50 is the concentration that gives 50% inhibition. As for `C[n+]1c(/C=C/c2cc3ccccc3[nH]2)cc(/C=C2\Sc3ccccc3N2CCCN2CCCCC2)c2ccccc21`, the negative-log IC50 (pIC50) was 5.35 in the series on HepG2; 5.30 with U2OS; 5.52 in the series with HeLa; 5.48 in the series with MDA-MB-231; 5.44 with A549; 5.48 in the series with PC-3. In addition, the IC50 at 48 h in series [1] turned out to be 7.9 µM; in series [2], 9.4 µM.

`C[n+]1c(/C=C/c2c[nH]c3ccccc23)cc(/C=C2\Sc3ccccc3N2CCCN2CCCCC2)c2ccccc21`: the pIC50 with HepG2 is 5.35; with U2OS, 5.29; in the series on HeLa, 5.74; in the series on MDA-MB-231, 5.51; in the series on A549, 5.77; in the series with PC-3 it was 5.42. Further, the IC50 at 48 h in series [1] came out at 5.4 µM; in series [2], 11.9 µM.

Take `C[n+]1c(/C=C/c2c[nH]c3ccccc23)cc(/C=C2\Sc3ccccc3N2CCCN2CCOCC2)c2ccccc21`: the pIC50 is 5.24 in the series with HepG2; 5.11 with U2OS; 5.64 with HeLa; 5.54 in the series with MDA-MB-231; 5.68 in the series on A549; 5.33 with PC-3. Also, the results for the IC50 at 48 h in series [1] and in series [2] were 5.8 µM and 16.5 µM, respectively.

For `C[n+]1c(/C=C/c2cc3ccccc3[nH]2)cc(/C=C2\Sc3ccccc3N2CCCN2CCC(C(F)(F)F)CC2)c2ccccc21`, the pIC50 is 5.33 in the series with HepG2; 5.01 in the series with U2OS; 5.26 in the series with HeLa; 5.28 with MDA-MB-231; 5.18 in the series with A549; 5.41 in the series on PC-3. The IC50 at 48 h in series [1] came out at 14.7 µM; in series [2], 12 µM.

For `CC1CCN(CCCN2/C(=C/c3cc(/C=C/c4cc5ccccc5[nH]4)[n+](C)c4ccccc34)Sc3ccccc32)CC1`, the pIC50 in the series with HepG2 is 5.30; in the series with U2OS, 5.21; in the series on HeLa, 5.51; with MDA-MB-231 it was 5.59; in the series with A549 it was 5.37; in the series with PC-3, 5.60. Besides, the IC50 at 48 h in series [1] turned out to be 6.3 µM; in series [2], 8 µM.

Turning to `CC1CCN(CCCN2/C(=C/c3cc(/C=C/c4c[nH]c5ccccc45)[n+](C)c4ccccc34)Sc3ccccc32)CC1`, the pIC50 in the series on HepG2 was 5.49; in the series with U2OS, 5.28; in the series on HeLa, 5.72; in the series on MDA-MB-231 it was 5.72; in the series on A549, 5.77; in the series with PC-3, 5.62. Further, the IC50 at 48 h in series [1] stood at 5.5 µM; in series [2], 6 µM.

For `CCN(CC)CCCN1/C(=C/c2cc(/C=C/c3c[nH]c4ccccc34)[n+](C)c3ccccc23)Sc2ccccc21`, the pIC50 in the series with HepG2 was 5.33; in the series on U2OS, 5.03; in the series on HeLa it was 5.72; in the series on MDA-MB-231, 5.68; in the series on A549 it was 5.64; with PC-3, 5.27. The IC50 at 48 h was 4.6 µM in series [1] and 14.5 µM in series [2].

Regarding `CC(C)(C)OO` [TERT-BUTYL HYDROPEROXIDE], in the series with MDA-MB-231, the pIC50 is 3.26.

`CCN(CC)CCCN1/C(=C/c2cc(/C=C/c3cc4ccccc4[nH]3)[n+](C)c3ccccc23)Sc2ccccc21`: the pIC50 with HepG2 is 5.27; with U2OS it was 4.99; with HeLa, 5.48; with MDA-MB-231 it was 5.25; in the series on A549, 5.33; in the series on PC-3 it was 5.51. For the same compound, the IC50 at 48 h is 9.5 µM in series [1] and 11.9 µM in series [2].

For `C[n+]1c(/C=C/c2cc3ccccc3[nH]2)cc(/C=C2\Sc3ccccc3N2CCCN2CCOCC2)c2ccccc21`, the pIC50 in the series on HepG2 is 5.28; with U2OS it was 4.83; in the series with HeLa it was 5.39; with MDA-MB-231, 5.19; in the series with A549 it was 5.30; in the series with PC-3, 5.32. Also, the values for the IC50 at 48 h in series [1] and in series [2] were 9.5 µM and 16.6 µM, respectively.
